The text below walks through data of patent US6310056A, “Carbapenem derivatives” (Meiji Seika Kaisha, Ltd., priority 1997, dated 2001).

≈ marks a conversion by molar mass, not a printed value. Structures can show the parent of a compound that is named as a salt.

Data set [1] deals with B. catarrhalis W-0506. Put plainly: Anti-microbial activities (MIC). It counts as cell-based. Conditions: Moraxella catarrhalis, W0506, Sensitivity Disk agar-N+5% Horse blood, 10^6 CFU/ml, read-out: minimum inhibiting concentration (MIC). The procedure:
(§1) The minimum inhibiting concentrations (MIC, […]) of the compounds according to the present invention to various pathogenic bacteria was measured in accordance with the method described in CHEMOTHERAPY, vol. 16, No. 1, 99, 1968. The culture medium for measurement was Sensitivity Disk agar-N+5% Horse blood, and the amount of inoculants was 10^6 CFU/ml.

The test system of data set [2] is C. freundii GN346. Put plainly: Anti-microbial activities (MIC). It counts as cell-based. As to conditions: Citrobacter freundii, Sensitivity Disk agar-N+5% Horse blood, 10^6 CFU/ml, read-out: minimum inhibiting concentration (MIC). As for the experimental part:
as §1

Data set [3] has as its system E. coli NIHJ JC-2. Nature of the data set: Anti-microbial activities (MIC). It counts as cell-based. Conditions: Escherichia coli, NIHJJC2, Sensitivity Disk agar-N+5% Horse blood, 10^6 CFU/ml, read-out: minimum inhibiting concentration (MIC). As for the experimental part: as §1
The test system of data set [4] is E. faecalis W-73. Put plainly: Anti-microbial activities (MIC). As to conditions: Enterococcus faecalis, W73, Sensitivity Disk agar-N+5% Horse blood, 10^6 CFU/ml, read-out: minimum inhibiting concentration (MIC). It counts as cell-based. As for the experimental part: as §1
In data set [5] the test system is E. hirae ATCC8043. Nature of the data set: Anti-microbial activities (MIC). It counts as cell-based. As to conditions: Enterococcus hirae, Sensitivity Disk agar-N+5% Horse blood, 10^6 CFU/ml, read-out: minimum inhibiting concentration (MIC). The procedure: as §1
Data set [6] has as its system H. influenzae PRC2. Put plainly: Anti-microbial activities (MIC). It counts as cell-based. Conditions: Haemophilus influenzae, Sensitivity Disk agar-N+5% Horse blood, 10^6 CFU/ml, read-out: minimum inhibiting concentration (MIC). The procedure:
as §1

In data set [7] the test system is H. influenzae PRC44. Put plainly: Anti-microbial activities (MIC). It counts as cell-based. Conditions: Haemophilus influenzae, Sensitivity Disk agar-N+5% Horse blood, 10^6 CFU/ml, read-out: minimum inhibiting concentration (MIC). As for the experimental part:
as §1

Data set [8] has as its system K. pneumoniae PCI602. Put plainly: Anti-microbial activities (MIC). It counts as cell-based. Conditions: Klebsiella pneumoniae, Sensitivity Disk agar-N+5% Horse blood, 10^6 CFU/ml, read-out: minimum inhibiting concentration (MIC). As for the experimental part: as §1
Data set [9] relates to P. vulgaris GN7919. Put plainly: Anti-microbial activities (MIC). It counts as cell-based. As to conditions: Proteus vulgaris, Sensitivity Disk agar-N+5% Horse blood, 10^6 CFU/ml, read-out: minimum inhibiting concentration (MIC). The procedure: as §1
For data set [10], the system named is S. aureus 209P JC-1. Put plainly: Anti-microbial activities (MIC). It counts as cell-based. Conditions: Staphylococcus aureus, Sensitivity Disk agar-N+5% Horse blood, 10^6 CFU/ml, read-out: minimum inhibiting concentration (MIC). The procedure: as §1
In data set [11] the test system is S. epidermidis ATCC14990. Nature of the data set: Anti-microbial activities (MIC). As to conditions: Staphylococcus epidermidis, Sensitivity Disk agar-N+5% Horse blood, 10^6 CFU/ml, read-out: minimum inhibiting concentration (MIC). It counts as cell-based. As for the experimental part: as §1
The test system of data set [12] is S. aureus M126 (methicillin-hyper resistant strain, MRSA). Put plainly: Anti-microbial activities (MIC). Conditions: Staphylococcus aureus, Sensitivity Disk agar-N+5% Horse blood, 10^6 CFU/ml, read-out: minimum inhibiting concentration (MIC). It counts as cell-based. The procedure: as §1
*: methicillin-hyper resistant strain (MRSA);

In data set [13] the test system is S. pneumoniae PRC9 (penicillin-hyper resistant strain, PRSP). Nature of the data set: Anti-microbial activities (MIC). It counts as cell-based. Conditions: Streptococcus pneumoniae, Sensitivity Disk agar-N+5% Horse blood, 10^6 CFU/ml, read-out: minimum inhibiting concentration (MIC). As for the experimental part: as §1
**: penicillin-hyper resistant strain (PRSP);

The nature of data set [14]: Stability against DHP-I, porcine. It counts as in vitro ADME. As to conditions: pig, renal dehydropeptidase i, pH 7, 100 μg (titer)/ml, 37° C., HPLC, read-out: residual amount after 3 hours. As for the experimental part: (§2) The stabilities of the compounds according to the present invention against porcine and mouse renal dehydropeptidases were measured by the following method.
(§3) Kidney acetone powder, Porcine Type II(Sigma; Lot. 33H7225; 1.5 g) was suspended in a 50 mM Tris.HCl buffer (pH 7.0) containing 20% butanol, and the mixture was stirred at 5° C. for 48 hours. Dialysis (Cellulose tube 30/32; Viskase Sales Corp) was conducted with a 50 mM Tris.HCl buffer (pH 7.0) in order to remove butanol to a level of no smell of butanol. The dialysate was centrifuged at 10000×g (KUBOTA 6800) for 20 minutes to give a supernatant as a partly purified DHP-I, which was divided into portions and stored at -80° C. Also, a partly purified DHP-I was prepared from 1.5 g of Mouse (Lot. 23F8105), and stored in the same manner as above.
(§4) The compounds according to the present invention as a basic pharmaceutical was diluted with sterile purified water to prepare a solution having a titer of 2000 μg/ml. The solution of the compound according to the present invention having a titer of 2000 μg/ml was added to the partly purified DHP-I's of the above described animals so as to have a final concentration of 100 μg (titer)/ml. As a blank, 50 mM Tris.HCl buffer (pH 7.0) was used in place of the partly purified DHP-I's of the animals. After reaction at 37° C. for 3 hours, a portion of the reaction mixture was taken out, diluted with the same amount of methanol to stop the reaction by cooling in ice. The reaction mixture was filtered through SUNPLEP LCR13-LH, MILLIPORE), and subjected to HPLC (column: CAPCELL PACK C18 SG120, SHISEIDO; UV detector; mobile phase: acetonitrile--10 mM aqueous acetic acid solution) to measure the residual amount (%) of […] according to the following equation. [formula]

Data set [15] can be described thus: Stability against DHP-I, mouse. It counts as in vitro ADME. As to conditions: renal dehydropeptidase i, pH 7, 100 μg (titer)/ml, 37° C., HPLC, read-out: residual amount after 3 hours. The procedure: as §2, §3, §4
Data set [16] can be described thus: Acute toxicity test. As to conditions: intravenous, 2000 mg/kg, mice, n=3. It counts as in vivo, mice (ICR, male). As for the experimental part:
The compound of Example 1 was administered intravenously to mice (ICR, male, n =3) in an amount of 2000 mg/kg.

For the compound `C[C@@H](O)[C@H]1C(=O)N2C(C(=O)O)=C(c3cn4cncc4s3)C[C@H]12` [Example 8, (5R,6S)-6-((1R)-1-hydroxyethyl)-2-(imidazo[5,1-b]thiazol-2-yl)-1-carbapen-2-em-3-carboxylic Acid], the MIC is less than 0.025 µg/mL in data set [1]; 0.2 µg/mL (≈ 0.626 µM) in data set [2]; 0.1 µg/mL (≈ 0.313 µM) in data set [3]; 0.39 µg/mL (≈ 1.22 µM) in data set [4]; 0.78 µg/mL (≈ 2.44 µM) in [5]; 0.05 µg/mL (≈ 0.157 µM) in data set [6]. Moreover, the MIC in data set [7] was 0.78 µg/mL (≈ 2.44 µM); in data set [8] it was 0.05 µg/mL (≈ 0.157 µM); in data set [9], 0.1 µg/mL (≈ 0.313 µM); in data set [10], less than 0.025 µg/mL; in data set [11], 0.05 µg/mL (≈ 0.157 µM); in data set [12], 6.25 µg/mL (≈ 19.6 µM). The MIC in [13] was 0.2 µg/mL (≈ 0.626 µM). Besides, the figures for the remaining at 3 h in data set [14] and in data set [15] were 60% and less than 0.2%, respectively.
In the case of `C[C@@H](O)[C@H]1C(=O)N2C(C(=O)O)=C(S[C@@H]3CN[C@H](Cc4cn5c[n+](C)cc5s4)C3)[C@H](C)[C@H]12` [Compound B, (1R,5S,6S)-6-((1R)-1-hydroxyethyl)-1-methyl-2-[(3S,5S)-5-(6-methylimidazo[5,1-b]thiazolium-2-yl)methylpyrrolidin-3-yl]thiocarbapen-2-em-3-carboxylic acid iodide, reference compound], the MIC in data set [1] was less than 0.025 µg/mL; in data set [2] it was 0.1 µg/mL; in data set [3] it was 0.05 µg/mL; in data set [4], 3.13 µg/mL; in data set [5], 1.56 µg/mL; in data set [6], 0.1 µg/mL. In addition, the MIC in data set [7] is 0.78 µg/mL; in data set [8] it was 0.1 µg/mL; in data set [9], 0.1 µg/mL; in data set [10], less than 0.025 µg/mL; in data set [11], 0.05 µg/mL; in [12], 6.25 µg/mL. Besides, in data set [13], the MIC came out at 0.39 µg/mL.
Consider `C[C@@H](O)[C@H]1C(=O)N2C(C(=O)O)=C(S[C@@H]3CN[C@H](C(=O)N(C)C)C3)[C@H](C)[C@H]12` [C, meropenem, reference compound], for which the remaining at 3 h in data set [14] came out at 72%; in data set [15] it was 18%.
`C[C@@H](O)[C@H]1C(=O)N2C(C(=O)O)=C(SCCN=CN)C[C@H]12` [Compound A, imipenem, reference compound]: the MIC was less than 0.025 µg/mL in data set [1]; 0.2 µg/mL (≈ 0.668 µM) in [2]; 0.1 µg/mL (≈ 0.334 µM) in data set [3]; 0.78 µg/mL (≈ 2.61 µM) in data set [4]; 0.78 µg/mL (≈ 2.61 µM) in data set [5]; 0.78 µg/mL (≈ 2.61 µM) in [6]. The MIC was 12.5 µg/mL (≈ 41.8 µM) in [7]; 0.2 µg/mL (≈ 0.668 µM) in data set [8]; 0.1 µg/mL (≈ 0.334 µM) in data set [9]; less than 0.025 µg/mL in data set [10]; less than 0.025 µg/mL in data set [11]; 25 µg/mL (≈ 83.5 µM) in data set [12]. Also, the MIC in data set [13] was determined as 0.2 µg/mL (≈ 0.668 µM). In addition, the remaining at 3 h came to 0.6% in [14] and 24% in data set [15].
On to `C[C@@H](O)[C@H]1C(=O)N2C(C(=O)[O-])=C(c3cn4c[n+](C)cc4s3)[C@H](C)[C@H]12` [Example 4, (1S,5R,6S)-6-((1R)-1-hydroxyethyl)-1-methyl-2-(6-methylimidazo[5,1-b]thiazolium-2-yl)-1-carbapen-2-em-3-carboxylate (inner salt)], for which the MIC in data set [1] was less than 0.025 µg/mL; in [2], 0.1 µg/mL; in data set [3] it was less than 0.025 µg/mL; in [4], 0.1 µg/mL; in data set [5], 0.78 µg/mL; in [6], 0.05 µg/mL. In addition, the MIC in [7] is 0.39 µg/mL; in data set [8] it was 0.05 µg/mL; in [9] it was 0.1 µg/mL; in data set [10], less than 0.025 µg/mL; in [11], less than 0.025 µg/mL; in [12], 3.13 µg/mL. Besides, in data set [13], the MIC stood at 0.05 µg/mL. The remaining at 3 h in data set [14] was 100%; in data set [15], 94%.
Consider `C[C@@H](O)[C@H]1C(=O)N2C(C(=O)O)=C(c3cn4cncc4s3)[C@H](C)[C@H]12` [Example 1, (1S,5R,6S)-6-((1R)-1-hydroxyethyl)-2-(imidazo[5,1-b]thiazol-2-yl)-1-methyl-1-carbapen-2-em-3-carboxylic Acid], for which the MIC is less than 0.025 µg/mL in [1]; 1.56 µg/mL (≈ 4.68 µM) in [2]; 0.1 µg/mL (≈ 0.3 µM) in data set [3]; 0.2 µg/mL (≈ 0.6 µM) in [4]; 0.39 µg/mL (≈ 1.17 µM) in data set [5]; less than 0.025 µg/mL in [6]. The MIC was 0.39 µg/mL (≈ 1.17 µM) in data set [7]; 0.1 µg/mL (≈ 0.3 µM) in [8]; 0.05 µg/mL (≈ 0.15 µM) in [9]; less than 0.025 µg/mL in [10]; less than 0.025 µg/mL in data set [11]; 3.13 µg/mL (≈ 9.39 µM) in [12]. The MIC in [13] amounted to 0.1 µg/mL (≈ 0.3 µM). Further, the remaining at 3 h in data set [14] was 87%; in data set [15] it was less than 2.9%. Also, the “survival (acute toxicity)” value in data set [16] is “all of the animals were survived”.
